Data taken from the NIST ThermoML archive (doi:10.1016/j.fluid.2015.05.032).
Numbers after ± are expanded uncertainties.

Columns and labels:
[1] = refractive index (Na D-line) (dimensionless); conditions: 293.15 K; 101.33 kPa; Liquid; Standard Abbe refractometry
[2] = Liquid; for mass density: 298.15 K, 101.33 kPa, Vibrating tube method; for Normal boiling temperature: Ebulliometric method (Recirculating still)

refractive index [1] | mass density [2] | Normal boiling temperature [2] | Structure (SMILES)
1.3886 ± 0.0004 | 866.4 ± 0.3 kg/m3 | 111.93 ± 0.2 °C | CCC(C)OC(C)=O (configuration not stated) [1-methylpropyl ethanoate]
1.3718 ± 0.0004 | 1043.5 ± 0.3 kg/m3 | 117.93 ± 0.2 °C | CC(=O)O [acetic acid]
1.3614 ± 0.0004 | 927.5 ± 0.3 kg/m3 | 56.7 ± 0.2 °C | COC(C)=O [methyl ethanoate]

Structure (SMILES) | refractive index [1] | mass density [2] | Normal boiling temperature [2]
Cc1ccc(C)cc1 [1,4-dimethylbenzene] | 1.4952 ± 0.0004 | 856.5 ± 0.3 kg/m3 | 138.47 ± 0.2 °C
